Experiments:
E. coli = assay: Combination therapy: Fradiomycin with PDEA, visible growth; assay type: cell-based; settings: no PDEA
Experimental: (§1) Different concentrations of Fradiomycin in Mueller Hinton were prepared in 3 different concentrations of PDEA. E. coli and S. aureus were inoculated (10^5) and were incubated overnight. Readouts were “Clear” and “Foggy”.

S. aureus = assay: as above; assay type: cell-based; settings: no PDEA
Experimental: as §1

NC[C@@H]1O[C@H](O[C@H]2[C@@H](O)[C@H](O[C@@H]3[C@@H](O)[C@H](N)C[C@H](N)[C@H]3O[C@H]3O[C@H](CN)[C@@H](O)[C@H](O)[C@H]3N)O[C@@H]2CO)[C@H](N)[C@@H](O)[C@@H]1O [Fradiomycin]
visible growth readout (E. coli; Fradiomycin 0.0156 μg/ml): Foggy | visible growth readout (E. coli; Fradiomycin 0.03125 μg/ml): Foggy | visible growth readout (E. coli; Fradiomycin 0.0625 μg/ml): Foggy | visible growth readout (E. coli; Fradiomycin 0.125 μg/ml): Foggy | visible growth readout (E. coli; Fradiomycin 0.25 μg/ml): Foggy | visible growth readout (E. coli; Fradiomycin 0.5 μg/ml): Foggy | visible growth readout (E. coli; Fradiomycin 2 μg/ml): Clear | visible growth readout (E. coli; Fradiomycin 4 μg/ml): Clear | visible growth readout (E. coli; Fradiomycin 8 μg/ml): Clear | visible growth readout (E. coli; Fradiomycin 16 μg/ml): Clear | visible growth readout (E. coli; Fradiomycin 32 μg/ml): Clear | visible growth readout (E. coli; Fradiomycin 64 μg/ml): Clear | visible growth readout (E. coli; Fradiomycin 128 μg/ml): Clear | visible growth readout (E. coli; Fradiomycin 256 μg/ml): Clear | visible growth readout (S. aureus; Fradiomycin 0.0156 μg/ml): Foggy | visible growth readout (S. aureus; Fradiomycin 0.03125 μg/ml): Foggy | visible growth readout (S. aureus; Fradiomycin 0.0625 μg/ml): Foggy | visible growth readout (S. aureus; Fradiomycin 0.125 μg/ml): Foggy | visible growth readout (S. aureus; Fradiomycin 0.25 μg/ml): Foggy | visible growth readout (S. aureus; Fradiomycin 0.5 μg/ml): Foggy | visible growth readout (S. aureus; Fradiomycin 1 μg/ml): Clear | visible growth readout (S. aureus; Fradiomycin 2 μg/ml): Clear | visible growth readout (S. aureus; Fradiomycin 4 μg/ml): Clear | visible growth readout (S. aureus; Fradiomycin 8 μg/ml): Clear | visible growth readout (S. aureus; Fradiomycin 16 μg/ml): Clear | visible growth readout (S. aureus; Fradiomycin 32 μg/ml): Clear | visible growth readout (S. aureus; Fradiomycin 64 μg/ml): Clear | visible growth readout (S. aureus; Fradiomycin 128 μg/ml): Clear | visible growth readout (S. aureus; Fradiomycin 256 μg/ml): Clear

— patent US20250339415A1, “DISULFIDE COMPOUNDS AS MEDICAMENTS” (CYTACOAT AB, priority 2021, published 2025)
